The values below are quoted from earlier work in paper PMC6453670 (International Journal for Parasitology: Drugs and Drug …, 2019).

For one data set, the system named is Toxoplasma. Particulars: longer treatment duration; ref Winzer et al., 2015.
Another data set has as its system Neospora. To be noted: longer treatment duration; ref Ojo et al., 2014; Winzer et al., 2015.

Turning to `CCOc1ccc2cc(-c3nn(CC4CCN(C)CC4)c4ncnc(N)c34)ccc2c1` [BKI 1294], the “Dose at which morphological alterations were seen in vitro” value with Toxoplasma and in the data set with Neospora was 2.5 μM each time.
